In general, EC50 refers to the midpoint of the concentration-response curve.

Data on one compound can be found in patent publication US10072005B2, “4-azaindole derivatives” (EISAI R&D MANAGEMENT CO., LTD., priority 2013, dated 2018).

Where only a bound is given, the exact number is not on record here.

Common to all, as to type: cell-based
One assay deals with mAChR M1 (Homo sapiens, UniProt P11229). Kind of assay: In vitro cellular calcium flux assay, positive allosteric modulation of mAChR M1. The note with it: BHK cells expressing mAChR M1; EC20 carbachol; Examples 76-80 and 82-89 slightly modified procedure. The essentials:
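Baby hamster kidney cells stably expressing human mAChR M1, loaded with Calcium 4 dye in HBSS/20 mM HEPES/2.5 mM probenecid for 30 min at 37 °C. An 11-point 1-in-3 compound dilution series was added and calcium rise read as fluorescence; positive allosteric modulator pEC50 and antagonist pIC50 derived.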

The target of another assay is mAChR M3 (Homo sapiens (Human), UniProt P20309). Kind of assay: In vitro cellular calcium flux assay, PAM, NAM and agonist modes, mAChR M3. As to the method: (§1) Baby hamster kidney cells stably expressing human or rat mAChR M1 to M5 were utilised for primary and selectivity profiling activities. mAChR M2 and M4 cell lines also stably expressed the chimeric Gαqi5 G-protein.
(§2) Human mAChR M1, M3, M5 and rat M1 cells were grown in low glucose Dulbecco's Modified Eagle's Medium (DMEM) medium plus heat inactivated 10% fetal bovine serum (HI FBS) and 500 μg/ml hygromycin B^1. Human mAChR M2 and M4 cells were maintained as above with^2 the addition of 500 μg/ml G418 to the media. Cells were maintained in culture at 37° C./5% CO2 and passaged twice weekly by treatment with 0.05% Trypsin/EDTA detachment solution, centrifugation (200 g, 5 min) and re-suspension in fresh media. Following cell expansion, cells were cryopreserved at −80° C. by treatment with 0.05% Trypsin/EDTA detachment solution, centrifugation (200 g, 5 min) and re-suspension of the pellet in freezing media (90% HI FBS/10% DMSO^3) at 15E6 cells/ml^4.
(§3) Prior to assaying, cells were prepared by thawing at 37° C. in a water bath, centrifugation (200 g, 5 min) and re-suspension of the pellet in fresh media. 15000 cells per well were seeded in black, clear bottomed 384-well Greiner Bio-One plates in plating medium (DMEM/10% HI FBS) and incubated overnight at 37 C/5% CO2.
(§4) On the day of the assay, media was removed from each well and replaced with 50 μl^5 assay buffer (HBSS with 20 mM HEPES and 2.5 mM Probenecid) containing the calcium indicator, Calcium 4 (Molecular Devices). Cells were then incubated at 37° C./5% CO2 for 30 min and at room temperature.
(§5) Compound preparation was carried out by generation of 11-point, 1 in 3 serial dilution concentration response curves in 100% DMSO. Compound was then diluted 1 in 65^6 with assay buffer (HBSS with 20 mM HEPES and 2.5 mM Probenecid) prior to the addition of 10 ul^7 to the cells using a Tetra fluorometric imaging plate reader (Molecular Devices)^8. Compound driven increases in intracellular calcium flux was measured as an increase in fluorescence (494Ex, 516Em)^9.
(§6) Positive allosteric modulator pEC50 values and antagonist pIC50 values for each compound were then determined. […] The points of modification and the alternate reagents, concentrations or equipment employed in these examples were: ^1200 μg/ml hygromycin B; ^2G418 not added; ^3CELLBANKER 1; ^410E6; ^5 40 μl; ^6 1 in 99; ^7 20 μl; ^8FDSS6000 (Hamamatsu Photonics); ^9(480Ex, 540Em); ^10Spotfire (TIBCO).
(§7) Certain compounds were tested in PAM, NAM and agonist modes against mAChR M2, M3, M4 and M5.
(A change in cytosolic calcium serves as a functional read-out for many receptors and channels.)

A further assay addresses mAChR M5 (Homo sapiens (Human), UniProt P08912). Kind of assay: In vitro cellular calcium flux assay, PAM, NAM and agonist modes, mAChR M5. The method, then:
as §1, §2, §3, §4, §5, §6, §7

Another assay addresses mAChR M4 (Homo sapiens (Human), UniProt P08173). Kind of assay: In vitro cellular calcium flux assay, PAM, NAM and agonist modes, mAChR M4. As to the method: as §1, §2, §3, §4, §5, §6, §7

Sequence of mAChR M3 (P20309 whole entry, looked up): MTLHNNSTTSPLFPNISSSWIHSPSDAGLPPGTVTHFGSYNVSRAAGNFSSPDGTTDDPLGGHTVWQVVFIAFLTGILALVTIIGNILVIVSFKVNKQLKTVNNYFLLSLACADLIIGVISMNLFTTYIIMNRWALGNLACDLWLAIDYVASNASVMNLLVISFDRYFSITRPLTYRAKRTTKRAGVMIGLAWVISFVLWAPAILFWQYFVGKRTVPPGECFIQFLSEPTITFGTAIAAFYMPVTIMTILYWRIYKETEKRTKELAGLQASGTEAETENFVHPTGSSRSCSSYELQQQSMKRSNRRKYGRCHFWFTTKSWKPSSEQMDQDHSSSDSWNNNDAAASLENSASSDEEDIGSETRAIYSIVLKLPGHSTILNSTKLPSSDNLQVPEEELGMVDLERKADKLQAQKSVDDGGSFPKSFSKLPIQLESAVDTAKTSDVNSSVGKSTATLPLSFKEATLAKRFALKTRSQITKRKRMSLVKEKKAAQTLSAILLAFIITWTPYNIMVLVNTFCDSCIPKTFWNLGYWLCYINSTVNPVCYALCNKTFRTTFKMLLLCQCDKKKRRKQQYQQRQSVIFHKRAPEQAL
Sequence of mAChR M5 (P08912 whole entry): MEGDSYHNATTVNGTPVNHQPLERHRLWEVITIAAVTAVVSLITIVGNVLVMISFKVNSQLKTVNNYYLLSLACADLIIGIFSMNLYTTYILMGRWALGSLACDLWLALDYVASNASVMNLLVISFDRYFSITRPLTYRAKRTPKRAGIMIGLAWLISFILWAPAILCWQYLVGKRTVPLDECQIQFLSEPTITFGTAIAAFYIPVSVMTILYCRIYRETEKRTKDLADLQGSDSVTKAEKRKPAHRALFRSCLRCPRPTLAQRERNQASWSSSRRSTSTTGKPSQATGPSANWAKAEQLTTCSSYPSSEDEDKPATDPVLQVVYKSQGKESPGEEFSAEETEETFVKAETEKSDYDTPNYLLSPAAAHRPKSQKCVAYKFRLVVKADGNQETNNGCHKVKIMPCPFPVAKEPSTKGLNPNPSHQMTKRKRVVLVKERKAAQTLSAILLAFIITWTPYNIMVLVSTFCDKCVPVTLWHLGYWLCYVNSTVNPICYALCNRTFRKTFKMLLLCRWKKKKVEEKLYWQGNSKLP
Sequence of mAChR M4 (P08173 whole entry): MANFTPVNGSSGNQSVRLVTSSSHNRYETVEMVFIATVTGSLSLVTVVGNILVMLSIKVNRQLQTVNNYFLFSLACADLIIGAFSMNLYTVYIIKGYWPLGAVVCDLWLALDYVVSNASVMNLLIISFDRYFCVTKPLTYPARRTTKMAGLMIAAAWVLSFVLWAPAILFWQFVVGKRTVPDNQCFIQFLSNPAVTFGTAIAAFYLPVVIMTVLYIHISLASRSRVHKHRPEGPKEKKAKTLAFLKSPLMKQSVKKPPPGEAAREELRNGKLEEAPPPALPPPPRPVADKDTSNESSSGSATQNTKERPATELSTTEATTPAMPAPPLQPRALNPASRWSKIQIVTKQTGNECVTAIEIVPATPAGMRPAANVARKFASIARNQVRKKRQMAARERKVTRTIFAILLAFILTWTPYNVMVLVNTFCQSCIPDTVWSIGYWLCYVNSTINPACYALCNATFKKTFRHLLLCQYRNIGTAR
Sequence of mAChR M1 (P11229 whole entry, looked up): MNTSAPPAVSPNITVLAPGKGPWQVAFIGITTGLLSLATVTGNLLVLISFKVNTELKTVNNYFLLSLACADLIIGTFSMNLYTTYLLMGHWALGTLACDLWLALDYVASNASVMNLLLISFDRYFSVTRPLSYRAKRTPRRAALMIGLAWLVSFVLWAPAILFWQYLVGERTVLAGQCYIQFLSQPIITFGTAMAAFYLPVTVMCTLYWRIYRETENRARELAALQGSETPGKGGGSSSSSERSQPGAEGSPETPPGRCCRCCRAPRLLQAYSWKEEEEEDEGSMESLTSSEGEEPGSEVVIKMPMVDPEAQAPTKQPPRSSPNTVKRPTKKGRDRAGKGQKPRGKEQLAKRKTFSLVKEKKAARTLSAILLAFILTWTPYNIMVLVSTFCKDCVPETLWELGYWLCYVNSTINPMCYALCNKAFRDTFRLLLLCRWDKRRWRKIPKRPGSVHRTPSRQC

Regarding `O=C(N[C@H]1CCCC[C@@H]1O)c1cn(Cc2ccc(F)cc2)c2cccnc12` [Example 5, 1-(4-Fluorobenzyl)-N-((1S,2S)-2-hydroxycyclohexyl)-1H-pyrrolo[3,2-b]pyridine-3-carboxamide], the “pEC50 for positive allosteric modulation” value on mAChR M1 is given as 6.9. Moreover, the EC50 at mAChR M3, on mAChR M5 and on mAChR M4 was greater than 10 µM in each case.
